Patent publication US4983620A, “Pharmacologically active alkylthiobenzimidazole derivatives and process for the preparation thereof” (Dompe Farmaceutici S.p.A., priority 1988, dated 1991)
Structures can show the parent of a compound that is named as a salt.

Legend:
[1] = tested on: mortality induced by histamine; test: Effect on the mortality induced by histamine; assay type: in vivo, male albino guinea pigs (Dunkin-Hartley); conditions: Cavia porcellus, ip, 30 minutes before 1.25 mg/kg i.v. histamine dihydrochloride; guinea pigs; read-out: Histamine mortality ID50
Method: The method described by Romer D. et al., (Med. Welt 17, 791, 1966) was followed and the tests were carried out on male albino guinea pigs (Dunkin-Hartley), weighing 350-450 g, which were kept in cages with a grid floor, on an empty stomach for 24 hrs and with water ad libitum.
The compounds (I) were dissolved in saline solution and intraperitoneally administered to the animals: 30 minutes later the same animals were intravenously treated with 1.25 mg/kg of histamine dihydrochloride in saline solution.
It was evaluated ID50 which corresponds to the amount of the compound able to inhibit 50% of the mortality induced by histamine: the estimation of ID50 was carried out by applying the `probit` method (Finney D. J. "Statistical Method in Biological Assay" p. 512, 1957).

[2] = target: T1, H1 histaminergic receptors (Rattus norvegicus, UniProt P31390); test: Affinity towards H1 histaminergic receptors ([3H]Mepyramine displacement, rat brain homogenates); conditions: 2 nM [3H]Mepyramine, 25° C., 15 minutes, pH 7.5, read-out: H1-receptor binding IC50
T1 construct: in homogenates of rat brain; from tissue; host or cells: rat whole brain homogenate
Method: The affinity of the examined compounds towards H1 histaminergic receptors as evaluated by displacement curves which were obtained of different concentrations, against [^3 H]
The incubation was performed at 25° C. for 15 minutes, in a final volume of 1 ml of […] Na/K phosphate buffer, pH 7.5, in the presence of 2 nM [^3 H] Mepyramina and 1.5 mg of cerebral protein. Aspecific binding was defined as the residual radioactivity bound in the presence of […] Clemastine. The test compounds were dissolved in phosphate buffer or dimethylsulfoxide (DMSO), the final concentration of DMSO was 0.5%. Incubation was terminated by filtration through glass fiber GF/B filters pre-soaked with 0.1% polyethylenimine (PEI). The radioactivity trapped by filters was counted by liquid scintillation.

[3] = tested on: mortality induced by compound 48/80; test: Effect on the mortality induced by compound 48/80; assay type: in vivo, Sprague Dawley Nos male rats; conditions: Rattus norvegicus, ip, 4 h; i.p., 30 minutes before 2 mg/kg i.v. compound 48/80; rats; read-out: Compound 48/80 mortality ID50
Method: The tests were carried out according to the method described by C. J. E. Niemergeers et al., Arch. Int. Pharmacodyn., 234,164,-1978. Sprague Dawley Nos male rats (Nossan, Correzzana, Milano) weighing 140-150 g, divided into groups of 10 animals each, on an empty stomach for 24 hrs and with water ad libitum, were kept in cages with a grid floor, then treated intravenously with 2 mg/kg of compound 48/80 (1 ml/rat). The compound (I) or the carrier were dissolved in water (5 ml/kg) and intraperitoneally administered to the animals 30 minutes before the treatment with the compound 48/80. The mortality occurred in the group of treated animals during the first 4 hours following the treatment was noted down. The results were expressed as the number of animals dead with respect to the number of treated animals.
The experimental data were submitted to the variance analysis and to the subsequent multiple comparisons according to Dunnett (D. J. Finney, "Statistical Method in Biological Assay", Ed. L. Griffin and Co., Ltd., pg. 152-157, Edition Ames, Iowa, 1971).

[4] = Acute toxicity (LD50) on mice; conditions: mouse, in vivo, ip
Method: The Letal Dose50 (LD50) was evaluated on mice using Swiss Nos (Nossan, Correzzana, Milano) mice weighing 18-20 g each. The animals, divided into groups of 10 animals each (5M+5F), were on an empty stomach for 18 hrs, with water ad libitum, and kept in cages with a grid floor. The compounds (I) were dissolved in water or suspended in 0.5% carboxymethylcellulose and intraperitioneally administered to the animals (10 ml/kg). The mortality occurred in the tested animals within the following 6 hours was noted down. At the expiry of the 6th hour, the animals were allowed to eat up to the end of the experimentation which lasted 14 days. During this period all the toxic symptoms and the mortality occurring were noted.
The animals which died during the test period and those which were sacrificed at the end of the same, underwent autopsy for a macroscopic examination of their main organs. The experimental data were statistically compared with the X^2 method and LD50 was extrapolated by the `probit` method.

[5] = Effect on the sleeping time; assay type: in vivo; conditions: 25 mg/kg i.p.

T1 sequence (P31390 whole entry): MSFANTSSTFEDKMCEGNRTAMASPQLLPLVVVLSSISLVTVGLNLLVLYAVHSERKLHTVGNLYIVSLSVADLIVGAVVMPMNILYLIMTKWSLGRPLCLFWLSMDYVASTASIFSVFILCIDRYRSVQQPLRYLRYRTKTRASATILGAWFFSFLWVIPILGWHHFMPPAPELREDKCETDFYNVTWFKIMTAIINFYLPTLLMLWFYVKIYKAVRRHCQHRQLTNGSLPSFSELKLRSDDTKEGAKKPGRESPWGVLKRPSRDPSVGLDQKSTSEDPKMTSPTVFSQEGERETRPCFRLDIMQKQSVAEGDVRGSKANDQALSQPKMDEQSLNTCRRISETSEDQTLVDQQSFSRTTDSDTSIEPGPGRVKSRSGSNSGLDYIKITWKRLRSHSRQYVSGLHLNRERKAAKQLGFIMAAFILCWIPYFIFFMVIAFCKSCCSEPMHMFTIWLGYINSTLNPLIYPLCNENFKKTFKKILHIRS

| Structure (SMILES) | ED50 [1] [mg/kg] | IC50 [2] [nM] | ED50 [3] [mg/kg] | LD50 at 336 h [4] [mg/kg] | Sleeping time % increase [5] [%] |
| --- | --- | --- | --- | --- | --- |
| CCOCCn1c(SCCN(C)C)nc2ccccc21 [Example 3, 1-(2-Ethoxyethyl)-2-(2-dimethylaminoethylthio)benzimidazole. 2 HCl] | 0.0109 | 2.4 | 0.008 | > 100 | 5 |
| CCOCCn1c(SCC(C)N(C)C)nc2ccccc21 (centres unmarked) [Example 5, 1-(2-Ethoxyethyl)-2-(2-dimethylaminoisopropylthio)benzimidazole] | 0.05 | 6.1 | 0.009 | ~100 | 10 |
| CC(C)(C)c1ccc(C(O)CCCN2CCC(C(O)(c3ccccc3)c3ccccc3)CC2)cc1 (centres unmarked) [Terfenadine, reference compound] | 0.735 | – | 1.99 | > 100 | 8 |
